Laboratory results from patent publication US9873690B2, “3-indol substituted derivatives, pharmaceutical compositions and methods for use” (Pfizer Inc., priority 2015, dated 2018).
pIC50: −log10 of the molar value.

Molecular target: T1, hTDO2 (Homo sapiens, UniProt P48775)
T1 construct: endogenous in cells; host or cells: A172 human brain glioblastoma cells (ATCC CRL-1620)
Experiment: Cellular assay for TDO2 activity determination in A172 cells
Assay type: cell-based
Details: human glioblastoma A172 cells naturally expressing hTDO2; overnight incubation; kynurenine by absorbance at 480 nm
How it was run: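 A172 glioblastoma cells endogenously expressing hTDO2, 1.25×10^4 cells/well, incubated overnight at 37 °C, 5% CO2 in IMDM with 2% FBS and ten compound concentrations. Supernatant kynurenine measured after TCA treatment and Ehrlich's reagent (4-dimethylaminobenzaldehyde) by absorbance at 480 nm against a kynurenine standard curve, then curve-fitted.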

T1 sequence (P48775 whole entry): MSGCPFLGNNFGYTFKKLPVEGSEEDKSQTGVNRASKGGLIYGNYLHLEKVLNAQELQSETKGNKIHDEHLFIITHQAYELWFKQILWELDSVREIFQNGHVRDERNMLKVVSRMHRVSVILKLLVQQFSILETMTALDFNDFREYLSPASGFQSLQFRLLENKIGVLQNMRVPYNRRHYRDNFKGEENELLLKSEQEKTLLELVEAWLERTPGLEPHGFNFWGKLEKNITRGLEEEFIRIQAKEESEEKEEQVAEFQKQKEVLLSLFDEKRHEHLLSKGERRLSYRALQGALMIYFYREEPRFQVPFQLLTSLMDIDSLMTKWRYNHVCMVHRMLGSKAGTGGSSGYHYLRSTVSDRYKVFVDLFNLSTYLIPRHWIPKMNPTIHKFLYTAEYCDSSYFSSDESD

pIC50: 6.38
Structure (SMILES): CC1c2cc(-c3c[nH]c4cc(F)ccc34)ccc2S(=O)(=O)N1CC1CCNCC1 (single isomer, unassigned; (-)) [Example 77, (−) 5-(6-fluoro-1H-indol-3-yl)-3-methyl-2-(piperidin-4-ylmethyl)-2,3-dihydrobenzo[d]isothiazole 1,1-dioxide]
